Data set [1] has as its system SARS-CoV-2. Put plainly: Antiviral activity against SARS-COV 2. The settings on record: Severe acute respiratory syndrome coronavirus 2. In kind it is functional, organism-based.
The nature of data set [2]: Cytotoxicity against human Calu-3 2B4 cells assessed as cell growth inhibition measured after 48 hrs by celltiterglo assay. Type of data set: toxicity, cell-based. In general terms: ATP-based viability assays read luminescence as a measure of living cells.
Data set [3] has as its system Middle East respiratory syndrome-related coronavirus. The experiment in a line: Antiviral activity against MERS-CoV infected in human Calu-3 2B4 cells assessed as reduction in virus-induced cytopathic effect incubated for 48 hrs by celltiterglo assay. Type of data set: functional, organism-based. Particulars: Calu-3 2B4, 48 h. (In general: Damage to the host cells serves as the signal in cytopathic effect assays.)

Data set [4] has as its system SARS-CoV-2. Put plainly: Antiviral activity against SARS-COV-2 infected in African green monkey Vero E6 cells assessed as inhibition of viral growth at 6.25 uM relative to control. The settings on record: Severe acute respiratory syndrome coronavirus 2, Vero C1008. Type of data set: functional.
In data set [5] the test system is SARS-CoV-2. The experiment in a line: Antiviral activity against SARS-COV-2 infected in African green monkey Vero E6 cells assessed as inhibition of viral growth at 0.195 uM relative to control. In kind it is functional. Particulars: Severe acute respiratory syndrome coronavirus 2, Vero C1008.
Data set [6] has as its system Middle East respiratory syndrome-related coronavirus. The experiment in a line: Antiviral activity against MERS-CoV infected in African green monkey Vero E6 cells assessed as reduction in virus-induced cytopathic effect incubated for 48 hrs by celltiterglo assay. Type of data set: functional, organism-based. The settings on record: Vero C1008, 48 h.
Data set [7] relates to SARS-CoV. Put plainly: Antiviral activity against SARS-COV infected in African green monkey Vero E6 cells assessed as reduction in virus-induced cytopathic effect incubated for 48 hrs by celltiterglo assay. Particulars: Severe acute respiratory syndrome-related coronavirus, Vero C1008, 48 h. In kind it is functional, organism-based.
The subject of data set [8] is Peritoneal macrophage. Put plainly: Anti-inflammatory activity against mouse peritoneal macrophages assessed as reduction in LPS induced IL-6 level by ELISA analysis. In kind it is functional, cell-based. On the technique in general: ELISA stands for enzyme-linked immunosorbent assay.
For data set [9], the system named is RAW264.7. The experiment in a line: Anti-inflammatory activity against mouse RAW264.7 cells assessed as reduction in LPS induced IL-6 level by ELISA analysis. In kind it is functional, cell-based.
A short description of data set [10]: Inhibition of Bovine coronavirus nucleoprotein.
The nature of data set [11]: Inhibition of human enteric coronavirus strain 4408 nucleoprotein.
For data set [12], the system named is SARS-CoV-2. The experiment in a line: Antiviral activity against SARS-COV-2 infected in African green monkey Vero E6 cells. Type of data set: functional, organism-based. Particulars: Severe acute respiratory syndrome coronavirus 2, Vero C1008.
Data set [13] in a line: Antiviral activity against hCoV-EMC/2012 infected in monkey LLC-MK2 cells assessed as reduction in viral titers. In kind it is functional, Human betacoronavirus 2c EMC/2012.
Data set [14] deals with SARS-CoV-2. The experiment in a line: Antiviral activity against SARS-CoV-2 nCoV-2019 BetaCoV/Wuhan/WIV04/2019 infected in African green monkey Vero E6 cells assessed as reduction in virus-induced cytopathic effect incubated for 48 hrs by qRT-PCR analysis. Type of data set: functional, organism-based. Particulars: Severe acute respiratory syndrome coronavirus 2, nCoV-2019 BetaCoV/Wuhan/WIV04/2019, Vero C1008, 48 h.

The nature of data set [15]: Antiviral activity against hCoV-EMC/2012 infected in African green monkey Vero cells assessed as reduction in virus-induced cytopathic effect incubated for 24 hrs by […] assay. In kind it is functional, cell-based, Human betacoronavirus 2c EMC/2012. The settings on record: Middle East respiratory syndrome-related coronavirus.
A short description of data set [16]: Cytotoxicity against African green monkey Vero E6 cells assessed as cell growth inhibition measured after 48 hrs by CCK-8 assay. The settings on record: chlorocebus sabaeus. In kind it is toxicity, cell-based, Vero C1008.
For data set [17], the system named is Canine coronavirus. Put plainly: Antiviral activity against Canine coronavirus S-378 infected in dog A-72 cells. Type of data set: functional, organism-based. Particulars: Alphacoronavirus 1, S-378, A-72.
Data set [18] concerns SARS-CoV-2. Put plainly: Antiviral activity against SARS-COV-2 Australia/VIC01/2020 infected in African green monkey Vero cells by RT-PCR assay. Type of data set: functional, organism-based, Severe acute respiratory syndrome coronavirus 2.

From ChEMBL document CHEMBL5230130, “COVID-19 therapy: What weapons do we bring into battle?” (Bioorg Med Chem, 2020) come the findings set out here.

≈ marks a conversion by molar mass, not a printed value.

What is called IC50 is the concentration needed to halve the response being measured. As a reminder, the CC50 is the concentration that lowers cell viability or growth by half. As a reminder, the inhibition is the drop in the measured response relative to a control, in per cent. By EC50 is commonly meant the concentration at which the effect is half-maximal.

`CC(=O)N[C@@H]1[C@H](Oc2c3cc4cc2Oc2ccc(cc2Cl)[C@@H](O[C@@H]2O[C@@H](CO)[C@@H](O)[C@H](O)[C@@H]2NC(C)=O)[C@@H]2NC(=O)[C@H](NC(=O)[C@@H]4NC(=O)[C@H]4NC(=O)[C@@H](Cc5ccc(c(Cl)c5)O3)NC(=O)[C@H](N)c3ccc(O)c(c3)Oc3cc(O)cc4c3)c3ccc(O)c(c3)-c3c(O[C@H]4O[C@H](CO)[C@@H](O)[C@@H](O)[C@@H]4O)cc(O)cc3[C@@H](C(=O)O)NC2=O)O[C@@H](CO)[C@@H](O)[C@@H]1O` had an IC50 in data set [1] of 1.66 µM.

Consider `CCC(CC)COC(=O)[C@H](C)N[P@](=O)(OC[C@H]1O[C@@](C#N)(c2ccc3c(N)ncnn23)[C@H](O)[C@@H]1O)Oc1ccccc1`, for which the CC50 at 48 h in [2] amounted to 10 µM. Also, the IC50 in data set [3] stood at 0.025 µM. Besides, the inhibition at 6.25 µM in data set [4] turned out to be 64.9%.

`CC[C@H]1CN2CCc3cc(OC)c(OC)cc3[C@@H]2C[C@@H]1C[C@H]1NCCc2cc(OC)c(OC)cc21` [EMETINE]: the inhibition at 0.195 µM in [5] amounted to 64.9%.

On to `Nc1ccn([C@@H]2O[C@H](CO)[C@@H](O)C2(F)F)c(=O)n1` [GEMCITABINE], for which the results for the EC50 in [6] and in data set [7] were 1.2 µM and 4.9 µM, respectively.

For the compound `CC(=O)Oc1ccccc1C(=O)Nc1ncc([N+](=O)[O-])s1` [NITAZOXANIDE], the IC50 in data set [8] stood at 2000 µM; in data set [9] it was 1540 µM; in data set [10], 0.3 µg/mL (≈ 0.976 µM); in data set [11], 0.3 µg/mL (≈ 0.976 µM).

As for `COC(=O)C[C@](O)(CCCC(C)(C)O)C(=O)O[C@@H]1C(OC)=C[C@]23CCCN2CCc2cc4c(cc2[C@H]13)OCO4` [OMACETAXINE MEPESUCCINATE], in data set [12], the EC50 worked out at 2.1 µM.

Take `NC(=O)c1ncn([C@@H]2O[C@H](CO)[C@@H](O)[C@H]2O)n1` [RIBAVIRIN]: the TCID50 in data set [13] stood at 13.7 µg/mL. Also, the EC50 in data set [14] was found to be 11000 µM. Besides, the IC50 in [15] was 41.4 µg/mL (≈ 170 µM). Also, the cytotoxic concentration (CC50) at 48 h in data set [16] is greater than 400 µM.

Compound `O=C(Nc1ncc([N+](=O)[O-])s1)c1ccccc1O` [TIZOXANIDE] displayed an IC50 in data set [17] of 1 µg/mL (≈ 3.77 µM).

Regarding IVERMECTIN, in data set [18], the IC50 worked out at 2 µM.
